Experimental data: publication PMC11435625, “In Vitro Hepatic Clearance Evaluations of Per- and Polyfluoroalkyl Substances (PFAS) across Multiple Structural Categories” (Toxics, 2024)
Like-named read-outs stand apart in the source and are kept apart here.

How the values were obtained:
[1] = IVIVE: steady-state concentration (Css), generic HTTK model; parameters: species or system human; conditions: for Css (mg/L) / Css (uM): Assuming 1 mg/kg/day dose rate, BW 70 kg; for CLhep: QL 1500000 uL/min; for Fub: fub=fup/(B:P), Fub set to 1 if needed; for CLint: scaled to whole liver: HPGL 110 mill cells/g, Vl 1596 g; for Css: human steady-state concentration, 1 mg/kg/day exposure rate, loss of parent compound only
In short: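 Human Css estimated by IVIVE: plasma protein binding converted to blood fraction unbound via blood-to-plasma partitioning, and experimental Clint scaled with liver scalars to whole liver clearance. AEDs then derived by reverse dosimetry from Css and PFAS in vitro POD, defined as fifth-percentile AC50.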

[2] = test system: pooled primary human hepatocyte suspensions; conditions: both, hepatocytes, 1 μM
From the text: (§2) Markov Chain Monte Carlo was employed in a Bayesian analysis to estimate uncertainty of the hepatic clearance point measures as previously described, but with some modifications [10]. Briefly, after organizing PFAS-level data into a single file, the relationship between the relevant measurement process parameters was described in a graphic model in JAGS language [13] interfaced through R. For hepatic clearance data, the model describes the PFAS-specific mass spectrometric response factor between analyte peak ratio (to internal standard) and chemical concentration. […] The assumed prior for whether the chemical degraded abiotically in vitro followed a Bernoulli distribution with a 5% chance of abiotic degradation. Separate biotic and abiotic components for chemical elimination were estimated, each with a slope following an assumed uniform prior distribution bounded between the zero and the -log (limit of quantitation/Ctest). In scenarios where an external calibration without internal standard was used, the response factor was calculated using the analyte peak alone, introducing additional uncertainty due to the inability to normalize for recovery issues. The model was analyzed jointly by JAGS using five Markov chains. Convergence was identified by requiring the five chains to be consistent, as indicated by the potential scale reduction factor [14] being less than 1.1. The analysis was performed using EPA-developed R package invitroTKstats, available upon request.

[3] = test system: pooled primary human hepatocyte suspensions; assay: in vitro; conditions: for In Vitro Clint: Table 3, 0 = no significant clearance
In short: (§1)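 Substrate depletion at 1 μM PFAS in pooled cryopreserved human hepatocytes (~0.5 × 10^6 viable cells/mL, 50-donor pool), 37 °C with shaking, sampled 0–240 min in triplicate. Quantified by LC-MS in negative ion mode against matrix-matched calibration; media-only or heat-inactivated cells as nonmetabolic-loss controls.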

plasma protein = conditions: cited from earlier work; for fup (fraction unbound in plasma): human plasma
[4] = Hepatic clearance assay (substrate depletion, LC-MS); conditions: both, human
In short: as §1

[5] = test system: pooled primary human hepatocyte suspensions; assay: Bayesian (MCMC, invitroTKstats) analysis of hepatic clearance data; conditions: for metabolic clearance call, experimental and Bayesian analyses in agreement: both analyses agreed; for Clint.1.Med: Level-4 Bayesian estimate, posterior median, Clint.1 series (Clint.10 all NA)
From the text: as §2

[6] = Administered equivalent dose (AED) by reverse dosimetry; parameters: species or system human; conditions: from Css and AC50 POD by reverse dosimetry
Procedure: IVIVE was performed as previously described to calculate human steady-state concentrations (Css). Briefly, experimental plasma protein binding data presented elsewhere were transformed to fraction unbound in blood using blood-to-plasma partitioning values. Experimental Clint values generated here are used in conjunction with relevant liver scalars to scale up to estimate whole liver clearance. […] Once Css values were established, these were used with the PFAS-specific in vitro POD data to calculate the administered equivalent doses (AEDs) using reverse dosimetry. […] The fifth-percentile AC50 value was used to define the in vitro POD. All relevant inputs, scalars, and calculations are provided in Supplementary Information, as indicated in the results.

[7] = pooled human hepatocyte suspension, 1 μM
[8] = unadjusted hepatic intrinsic clearance, pooled primary human hepatocyte suspensions, Table S4, in µL/min/10^6 cells
[9] = CLint value carried into HTTK/IVIVE, in µL/min/10^6 cells
[10] = pooled primary human hepatocyte suspensions, in µL/min/10^6 cells
[11] = fraction unbound in plasma, input for IVIVE calculations

| Compound | Css (mg/L) [1] [mg/L] | Css (uM) [1] [µM] | CLhep [1] [L/h] | Fub [1] | CLint [1] [µL/min] | Css [1] [µM] | Unadj Clint [3, 8] | fup (fraction unbound in plasma) (plasma protein) | AED [6] [mg/kg/day] | CLint for HTTK [3, 9] | in vitro CLint exp assay [3, 10] | Clint.1.Med [5] | also measured |
| --- | --- | --- | --- | --- | --- | --- | --- | --- | --- | --- | --- | --- | --- |
| O=C(O)CCC(F)(C(F)(F)F)C(F)(F)F | 2.52 | 10.43 | 0.000 | 0.1738 | 0 |  |  |  |  |  |  |  | Clint.1.Med [2]: 0; CLint for HTTK ([3]; both, human, hepatocytes, 1 μM): 0; Unadj Clint ([3]; both, human, hepatocytes, 1 μM): 0.00; in vitro CLint exp assay ([3]; both, human, hepatocytes, 1 μM): 0; Mean fu (plasma protein; plasma): 0.0956 |
| O=S(=O)(O)CCC(F)(F)C(F)(F)C(F)(F)C(F)(F)F [4:2 FTS, 4:2 Fluorotelomer sulfonic acid] |  |  |  |  |  | 19.12 | 4.28 | 0.0050 |  |  |  |  | hepatocyte CLint at 1 μM ([4]; hepatocytes): 4.28 µL/min/1e6 cells; In Vitro Clint [3, 7]: 4.28 μL/min/million cells |
| O=C(O)CCC(F)(F)C(F)(F)C(F)(F)C(F)(F)C(F)(F)F [5:3 FTCA, 2H,2H,3H,3H-Perfluorooctanoic acid] |  |  |  |  |  | 6.18 | 11.84 | 0.0059 | 0.99 |  |  |  | hepatocyte CLint at 1 μM ([4]; hepatocytes): 11.8 µL/min/1e6 cells; In Vitro Clint [3, 7]: 11.84 μL/min/million cells; metabolic clearance call, experimental and Bayesian analyses in agreement [5]: metabolized |
| O=S(=O)(O)CCC(F)(F)C(F)(F)C(F)(F)C(F)(F)C(F)(F)C(F)(F)F [6:2 FTS, 6:2 Fluorotelomer sulfonic acid] |  |  |  |  |  | 12.36 | 1.40 | 0.0143 | 0.89 |  |  |  | hepatocyte CLint at 1 μM ([4]; hepatocytes): 1.4 µL/min/1e6 cells; In Vitro Clint [3, 7]: 1.4 μL/min/million cells |
| O=C(O)CCC(F)(F)C(F)(F)C(F)(F)C(F)(F)C(F)(F)C(F)(F)F [6:3 FTCA, 6:3 Fluorotelomer carboxylic acid] | 11.76 | 30.01 | 0.222 | 0.004182 | 886578 | 30.01 |  | 0.0023 | 0.18 | 5.05 | 5.05 | 0 | CLint ([3]; Table 2, pooled human hepatocyte suspension, 1 μM, 0-240 min, 0 = slope not significant (p>0.05)): 5.05 μL/min/million cells; In Vitro Clint [3, 7]: 5.05 μL/min/million cells |
| O=C(O)CCC(F)(F)C(F)(F)C(F)(F)C(F)(F)C(F)(F)C(F)(F)C(F)(F)F [7:3 FTCA, 3-Perfluoroheptylpropanoic acid] | 2.20 | 4.99 | 1.272 | 0.009273 | 2319148 | 4.99 | 19.74 | 0.0051 | 0.19 | 13.21 | 13.21 | 15.6 | hepatocyte CLint at 1 μM ([4]; hepatocytes): 15.7 µL/min/1e6 cells; In Vitro Clint [3, 7]: 15.7 μL/min/million cells; metabolic clearance call, experimental and Bayesian analyses in agreement [5]: metabolized |
| O=S(=O)(O)CCC(F)(F)C(F)(F)C(F)(F)C(F)(F)C(F)(F)C(F)(F)C(F)(F)C(F)(F)F [8:2 FTS, 8:2 Fluorotelomer sulfonic acid] |  |  |  |  |  |  | 1.53 |  |  |  |  |  | hepatocyte CLint at 1 μM ([4]; cryopreserved pooled primary human hepatocyte suspensions): 1.53 µL/min/1e6 cells |
| O=C(O)C(F)(F)C(F)(F)C(F)(F)C(F)(F)C(F)(F)C(F)(F)C(F)F [8H-PFOA, 8H-Perfluorooctanoic acid] |  |  |  |  |  | 290.23 | 0.00 | 0.0021 | 0.04 |  |  | 0 |  |
| O=C(O)C(F)(F)C(F)(F)C(F)(F)C(F)(F)C(F)(F)C(F)(F)C(F)(F)C(F)F [9H-PFNA, 9-H-Perfluorononanoic acid] |  |  |  |  |  | 601.28 | 0.00 | 0.0009 | 0.004 |  |  |  |  |
| O=C(O)C(F)(F)C(F)(F)C(F)(F)C(F)(F)C(F)(F)C(F)(F)C(F)(F)C(F)(F)C(F)(F)C(F)F [11H-PFUnDA, 11-H-Perfluoroundecanoic acid] |  |  |  |  |  | 294.69 | 0.00 | 0.0015 | 0.03 |  |  |  |  |
| O=C(O)C(F)(F)C(F)(F)C(F)(F)C(F)(F)C(F)(F)C(F)(F)C(F)(F)C(F)(F)C(F)(F)F [PFDA, Perfluorodecanoic acid] |  |  |  |  |  | 173.91 | 0.00 | 0.0027 | 0.06 |  |  |  |  |
| O=C(O)C(F)(F)C(F)(F)C(F)(F)C(F)(F)C(F)(F)C(F)(F)F [PFHpA, Perfluoroheptanoic acid] |  |  |  |  |  | 1657.68 | 3.12 | 0.0004 | 0.01 |  |  |  |  |
| O=S(=O)(O)C(F)(F)C(F)(F)C(F)(F)C(F)(F)C(F)(F)C(F)(F)C(F)(F)F [PFHpS, Perfluoroheptanesulfonic acid] |  |  |  |  |  | 893.98 | 1.23 | 0.0006 | 0.02 |  |  |  |  |
| O=C(O)C(F)(F)C(F)(F)C(F)(F)C(F)(F)C(F)(F)F [PFHxA, Perfluorohexanoic acid] |  |  |  |  |  | 113.04 | 1.62 | 0.0068 | 0.08 |  |  |  |  |
| O=S(=O)(O)C(F)(F)C(F)(F)C(F)(F)C(F)(F)C(F)(F)C(F)(F)F [PFHxS, Perfluorohexanesulfonic acid] |  |  |  |  |  | 670.49 | 1.52 | 0.0009 | 0.033 |  |  |  |  |
| O=C(O)C(F)(F)C(F)(F)C(F)(F)C(F)(F)C(F)(F)C(F)(F)C(F)(F)C(F)(F)F [PFNA, Perfluorononanoic acid] |  |  |  |  |  | 325.11 | 0.83 | 0.0016 | 0.05 |  |  |  |  |
| O=C(O)C(F)(F)C(F)(F)C(F)(F)OC(F)(C(F)(F)F)C(F)(F)F [PFPE-1, Perfluoro-4-isopropoxybutanoic acid] |  |  |  |  |  |  | 5.78 |  |  |  |  |  | hepatocyte CLint at 1 μM ([4]; hepatocytes): 5.78 µL/min/1e6 cells |
| O=C(O)C(F)(F)C(F)(F)C(F)(F)C(F)(F)C(F)(F)C(F)(F)C(F)(F)C(F)(F)C(F)(F)F [Perfluorodecanoic acid (PFDA)] | 89.39 | 173.91 | 0.000 | 0.004909 | 0 |  |  |  |  | 0 | 0 | 0 | Mean fu (plasma protein; [11]): 0.0027 |
| O=C(O)C(F)(F)C(F)(F)C(F)(F)C(F)(F)C(F)(F)C(F)(F)F [Perfluoroheptanoic acid (PFHpA)] | 603.36 | 1657.68 | 0.000 | 0.0007273 | 0 |  |  |  |  | 0 | 3.12 | 0 | Mean fu (plasma protein; [11]): 0.0004 |
| O=C(O)C(F)(F)C(F)(F)C(F)(F)C(F)(F)C(F)(F)F [Perfluorohexanoic acid (PFHxA)] | 35.49 | 113.04 | 0.000 | 0.01236 | 0 |  |  |  |  | 0 | 1.62 | 0 | Mean fu (plasma protein; [11]): 0.0068 |
| O=C(O)C(F)(F)C(F)(F)C(F)(F)C(F)(F)C(F)(F)C(F)(F)C(F)(F)C(F)(F)C(F)(F)C(F)(F)F [Perfluoroundecanoic acid (PFUnDA)] | 20.81 | 36.89 | 0.000 | 0.02109 | 0 |  |  |  |  | 0 | 0 | 0 | Mean fu (plasma protein; [11]): 0.0116 |
| O=C([O-])C(F)(F)C(F)(F)C(F)(F)C(F)(F)C(F)(F)C(F)(F)C(F)(F)F.[K+] [Potassium perfluorooctanoate (KPFOA)] | 134.08 | 323.88 | 0.000 | 0.003273 | 0 |  |  |  |  | 0 | 0 | 0 | Mean fu (plasma protein; [11]): 0.0018 |
| O=C([O-])C(F)(F)C(F)(F)C(F)(F)C(F)(F)C(F)(F)C(F)(F)C(F)(F)F.[Na+] [Sodium perfluorooctanoate (NaPFOA)] | 402.24 | 971.65 | 0.000 | 0.001091 | 0 |  |  |  |  | 0 | 0 | 0 | Mean fu (plasma protein; [11]): 0.0006 |
